Source: US9101138B2, “Methods and compositions utilizing lactams derived from camphor, verbenone or cat thyme oil for repelling blood-sucking and biting insects, ticks and mites” (The United States of America, as represented by the …, priority 2013, dated 2015)

Tests used:
Assay type in all cases: in vivo
Aedes aegypti females = assay: Feeding deterrency assay utilising K&D module; conditions: 25 nmol\cm^2
Protocol: Feeding Deterrency assay utilising K&D module (Klun, J. A., and M. Debboun, J. Med. Entomol., 37: 177-181 (2000); Klun, J. A., et al., 40: 293-299 (2003)): Test compounds were bioassayed for their feeding deterrency against Aedes aegypti females in K&D module assay. […] Feeding deterrency was evaluated as proportion feeding. Ethanol was used as control.

[1] = tested on: adult lone star ticks, Amblyomma americanum; assay: Tick repellency: vertical filter paper bioassay; conditions: for % repelled: ticks exposed 10-15 minutes after application
Protocol: Tick repellency: Vertical filter paper bioassay against adult lone star ticks, Amblyomma americanum, and nymphs was conducted with selected lactams, lactones and ketones. Adult ticks were exposed 10-15 minutes after application of the candidate compounds. Repellency was measured in % repelled from the treated surface at various concentrations.

Aedes aegypti = assay: Free choice assay against mosquitoes (feeding deterrence assay in glove box); conditions: treated membrane over human blood, 20 min; for EC50: median effective dose to repel 50% of mosquitoes
Protocol: Free Choice Assay against mosquitoes (compact repellency): Mosquitoes used were nulliparous female Aedes aegypti (Red eye Liverpool strain). They were laboratory-reared and maintained at 27° C. and 80% RH under a photoperiod of 12:12 (L:D) h by using standard mosquito rearing procedures (Rutledge, C. C., et al., J. Med. Entomol., 14: 536-541 (1978)). Larvae were fed a diet of ground tropical fish flakes and adults were fed a 10% sucrose solution. Adult female mosquitoes used for experimentation were between 5 and 15 d old and starved (provided only water) for 24 h before testing. The test system consisted of a mosquito blood-feeder, a constant-temperature water circulator (to maintain the temperature of the blood at 37° C.) and a specially designed cage. The mosquito blood-feeder contained five circular blood reservoirs, each of which was filled with outdated human blood titrated with adenosine triphosphate. The wells were then covered with sausage membrane and secured using high vacuum grease. Absolute ethanol was used as a solvent and diluent for candidate repellents. Each diluted repellent solution was then randomly applied to the membrane surface at concentrations of 0.02, 0.04, 0.08 and 0.16 mg/cm^2. A separate membrane covered well served as a control. 250 mosquitoes were exposed to the treated membranes on the blood reservoirs ad libitum by opening the sliding door in the floor of the test cage. The number of mosquitoes feeding on each well was counted and noted at two-minute intervals for 20 minutes using the total number of feeding mosquitoes as a response. Each test was replicated for a minimum of four times to obtain a statistically valid sample size for analysis. The median effective dose to repel 50% of the mosquito test population was then calculated by the method of Goldstein (Goldstein, A., et al., 1974. Principles of Drug Action: The Basis of Pharmacology, 2nd ed., John Wiley and Sons, New York, N.Y., 854 p) (chemical sensitivity levels calculated from the dose-response regression equation) for single curves with graded responses. Significant differences were then determined by comparing the 95% confidence level among effective doses.

[2] = tested on: Sand Fly (Phlebotomus papatasi); assay: Sand fly blood-feeding assay for testing repellents and feeding deterrents; conditions: 2 h; for Mean % Feeding / Mean % Inhibition: n = 3; for effectiveness (comparison between compounds): sand fly blood feeding
Source text: Sand Fly (Phlebotomus papatasi) blood-feeding assay for testing repellents and feeding deterrents: A pig intestine-based membrane feeing system (Watnaporn, D., et al., Proceedings of VIIIth Sir Dorabjee Tata International Symposium: Arthropod born viral infections-Current status and research, Pages 417-424, 2008) has been used for blood-feeding of female sand flies in colony maintenance. The same technique has been used for testing repellency and antifeeding effects of several new compounds. A circular area of the fabric mesh on top of the test container that matches the size of the glass feeder was treated with the test compound by applying the test solution using a Q-tip. After a group of 30 females and 15 males was placed into the test container, a glass feeder filled with cow blood was placed on top of the treated area in the center of the fabric mesh that was secured on top of the container. Sand flies were allowed to feed for 2 h before the number of blood-fed females was in each feeding container counted.
Female sand flies in the untreated control achieved a 32% to 61% blood feeding rate during the test period (2 h) when a group of 30 females and 15 males was placed in a feeding pot and fed through a fine mesh screen using an artificial membrane feeding system (Table 1 [?]).

Row | Molecule | % not biting (Aedes aegypti females) [%] | mean bites\6 (Aedes aegypti females) | total Bites\120 (Aedes aegypti females) | % repelled ([1]; Conc. 125 ug) [%] | % repelled ([1]; Conc. 500 ug) [%] | % repelled ([1]; Conc. 2000 ug) [%] | EC50 (Aedes aegypti) [mg/cm^2] | EC95 (Aedes aegypti) [mg/cm^2] | Mean % Feeding ([2]; concentration 0.001%) [%] | Mean % Inhibition ([2]; concentration 0.001%) [%] | Mean % Feeding ([2]; concentration 0.01%) [%] | Mean % Inhibition ([2]; concentration 0.01%) [%] | other results
1 | CC12CCC(CNC1=O)C2(C)C (centres unmarked) [Compound 1, Camphor lactam] | 91 | 0.55 | 11 | 26.7 | 66.7 | 73.3 | 0.0355 | 0.166 | 2.2 | 97.0 | 0.0 | 100.0 | Mean % Feeding ([2]; concentration 0.00001%): 6.7%; Mean % Inhibition ([2]; concentration 0.00001%): 90.9%; Mean % Feeding ([2]; concentration 0.0001%): 3.3%; Mean % Inhibition ([2]; concentration 0.0001%): 95.5%
2 | CCCN1CC2CCC(C)(C1=O)C2(C)C (centres unmarked) [Compound 1a, N-propyl camphor lactam] | 96 | 0.25 | 5 | 26.7 | 100 | 93.3 | 0.0282 | 0.102 | 1.1 | 98.5 | 0.0 | 100.0 | Mean % Feeding ([2]; concentration 0.00001%): 5.6%; Mean % Inhibition ([2]; concentration 0.00001%): 92.4%; Mean % Feeding ([2]; concentration 0.0001%): 6.7%; Mean % Inhibition ([2]; concentration 0.0001%): 90.9%
3 | C=C1CNC(=O)C2C(C)CCC12 (centres unmarked) [Compound 3, Dolicho (C) lactam] | 92 | 0.5 | 10 |  |  |  | 0.0322 | 0.173 |  |  |  |  | effectiveness (comparison between compounds) [2]: more effective than dolicholactone
4 | C=C1CN(CCC)C(=O)C2C(C)CCC12 (centres unmarked) [Compound 3a, N-propyl dolicho-C-lactam] | 98 | 0.15 | 3 | 83.6 | 100 | 100 | 0.0317 | 0.117 | 25.6 | 65.1 | 17.8 | 75.8 | % repelled ([1]; Conc. 63 ug): 20%; Mean % Feeding ([2]; concentration 0.02%): 8.9%; Mean % Inhibition ([2]; concentration 0.02%): 87.9%; Mean % Feeding ([2]; concentration 0.04%): 5.6%; Mean % Inhibition ([2]; concentration 0.04%): 92.4%; effectiveness (comparison between compounds) [2]: more effective than dolicholactam
5 | C=C1COC(=O)[C@H]2[C@@H]1CC[C@@H]2C [Compound 5, Dolicholactone (C)] | 89 | 0.7 | 14 |  |  |  |  |  |  |  |  |  | 
6 | C=C1C(=O)OC[C@H]2[C@@H]1CC[C@@H]2C [Compound 6, Dolicho lactone (D)] | 87 | 0.8 | 16 |  |  |  |  |  |  |  |  |  | 
7 | CC(C)=CCCC(C)C1C=CC(=O)CC1 (centres unmarked) [Compound 7a, 4-(1,5-Dimethylhex-4-enyl)cyclohex-2-en-1-one] |  |  |  | 73.3 | 96.7 | 82.5 |  |  |  |  |  |  | % repelled ([1]; Conc. 31 ug): 20%; % repelled ([1]; Conc. 63 ug): 53.3%; lowest concentration at which adult ticks were repelled ([1]; filter paper bioassay): 31 µg
8 | CCN(CC)C(=O)c1cccc(C)c1 [DEET, N,N-diethyl-m-toluamide, reference compound] | 94 | 0.4 | 8 | 5 | 68.3 | 95.7 |  |  |  |  |  |  | repellency ([1]; at 125 and 64 ug concentrations): failed to repel ticks
9 | N-propyl dihydro verbenone lactam [Compound 2a] | 92 | 0.5 | 10 |  |  |  | 0.0561 | 0.264 |  |  |  |  | 
